From patent US20010047099A1, “4-aminopicolinates and their use as herbicides” (priority 2000, published 2001)

What was measured:
[1] = system: wild buckwheat (Polygonum convolvulus); assay: Postemergence herbicidal activity; type: in vivo; conditions: Fallopia convolvulus, post-emergence, 336 h, Table 1, visual, after 2 weeks, read-out: Post-emergent % Control POLCO; for pest or weed control at 250 ppm: rate 250 ppm; for pest or weed control at 125 ppm: rate 125 ppm
Method: (§1) Seeds of the desired test plant species were planted in Grace-Sierra MetroMix® 306 planting mixture, which typically has a pH of 6.0 to 6.8 and an organic matter content of about 30 percent, in plastic pots with a surface area of 64 square centimeters. When required to ensure good germination and healthy plants, a fungicide treatment and/or other chemical or physical treatment was applied. The plants were grown for 7-21 days in a greenhouse with an approximate 15 hr photoperiod which was maintained at about 23-29° C. during the day and 22-28° C. during the night. Nutrients and water were added on a regular basis and supplemental lighting was provided with overhead metal halide 1000-Watt lamps as necessary. The plants were employed for testing when they reached the first or second true leaf stage.
(§2) A weighed amount, determined by the highest rate to be tested, of each test compound was placed in a 20 mL glass vial and was dissolved in 4 mL of a 97:3 v/v (volume/volume) mixture of acetone and dimethyl sulfoxide (DMSO) to obtain concentrated stock solutions. […] The concentrated stock solutions obtained were diluted with an aqueous mixture containing acetone, water, isopropyl alcohol, DMSO, Atplus 411F crop oil concentrate, and Triton X-155 surfactant in a 48.5:39:10:1.5:1.0:0.02 v/v ratio to obtain spray solutions of known concentration. The solutions containing the highest concentration to be tested were prepared by diluting 2 mL aliquots of the stock solution with 13 mL of the mixture and lower concentrations were prepared by serial dilution of the stock solution. Approximately 1.5 mL aliquots of each solution of known concentration were sprayed evenly onto each of the test plant pots using a DeVilbiss atomizer driven by compressed air pressure of 2 to 4 psi ([…]) to obtain thorough coverage of each plant. Control plants were sprayed in the same manner with the aqueous mixture. In this test an application rate of 1 ppm results in the application of approximately 1 g/Ha.
(§3) The treated plants and control plants were placed in a greenhouse as described above and watered by sub-irrigation to prevent wash-off of the test compounds. After 2 weeks the condition of the test plants as compared with that of the untreated plants was determined visually and scored on a scale of 0 to 100 percent where 0 corresponds to no injury and 100 corresponds to complete kill.

[2] = system: cocklebur (Xanthium strumarium); assay: Postemergence herbicidal activity; type: in vivo; conditions: Xanthium strumarium, post-emergence, 336 h, Table 1, visual, after 2 weeks, read-out: Post-emergent % Control XANST; for pest or weed control at 250 ppm: rate 250 ppm; for pest or weed control at 125 ppm: rate 125 ppm
Method: as §1, §2, §3

[3] = system: chickweed (Stellaria media); assay: Postemergence herbicidal activity; type: in vivo; conditions: Stellaria media, post-emergence, 336 h, Table 1, visual, after 2 weeks, read-out: Post-emergent % Control STEME; for pest or weed control at 250 ppm: rate 250 ppm; for pest or weed control at 125 ppm: rate 125 ppm
Method: as §1, §2, §3

[4] = system: White Clover (Trifolium repens); assay: Range & Pasture Crop Testing (postemergence track sprayer); type: in vivo; conditions: Table 10
Method: (§4) By applying the well-accepted probit analysis as described by J. Berkson in Journal of the […], 48, 565 (1953) and by D. Finney in “Probit Analysis” Cambridge University Press (1952), the above data can be used to calculate GR50 and GR80 values, which are defined as growth reduction factors that correspond to the effective dose of herbicide required to kill or control 50 percent or 80 percent, respectively, of a target plant.
(§5) Rates are calculated based upon 5 doses being applied. The high rate (X), followed by serial dilutions of 1/2×, 1/4×, 1/8× and 1/16×. Compound requirements are based upon the 187 L/ha carrier volume, specifications of the delivery system (Mandel track sprayer) and generating 24 mL of technical spray material to allow for the dilutions and overage in the sprayer. [formula]
(§6) All technical materials were formulated in 97:3 (acetone:DMSO) with 0.25% X-77. The total volume of solvent is maintained at less than 7%. An overhead Mandel track sprayer calibrated to deliver 187 L/ha was used for all treatment applications (postemergence). Picloram was included as a comparison treatment.
(§7) Solutions were applied with a mechanized track-sprayer at the following settings:
(§8) Spray height: 17 inches above top of plants
(§9) This provides an application volume of 187 L/ha.
(§10) Percent weed control (burn down) was evaluated 3 weeks after treatment. Visual control on a 0-100 linear scale was used, with 0 representing no control and 100 representing total control. Burn down ratings were taken for annual and perennial weed species.

[5] = system: Canada thistle (Cirsium arvense); assay: as above; type: in vivo; conditions: Table 10; clover pasture; postemergence
Method: as §4, §5, §6, §7, §8, §9, §10

[6] = system: field bindweed (Convolvulus arvensis); assay: as above; type: in vivo; conditions: Table 10; clover pasture; postemergence
Method: as §4, §5, §6, §7, §8, §9, §10

[7] = system: morningglory (Ipomoea hederacea); assay: Preemergence herbicidal activity; type: in vivo; conditions: Ipomoea, 504 h, Table 6 (headed Post-emergent; text: preemergence), after 3 weeks, read-out: % Control IPOHE; for pest or weed control at 280 ppm: rate 280 ppm; for pest or weed control at 560 ppm: rate 560 ppm
Source text: (§11) Seeds of the desired test plant species were planted in a soil matrix prepared by mixing a loam soil (43 percent silt, 19 percent clay, and 38 percent sand, with a pH of about 8.1 and an organic matter content of bout 1.5 percent) and sand in a 70 to 30 ratio. The soil matrix was contained in plastic pots with a surface area of 113 square centimeters. When required to ensure good germination and healthy plants. a fungicide treatment and/or other chemical or physical treatment was applied.
(§12) A weighed amount, determined by the highest rate to be tested, of each test compound was placed in a 20 mL glass vial and was dissolved in 4 mL of a 97:3 v/v (volume/volume) mixture of acetone and dimethyl sulfoxide to obtain concentrated stock solutions. […] The stock solutions obtained were diluted with a 99.9:0.1 mixture of water and Tween® […] surfactant to obtain application solutions of known concentration. The solutions containing the highest concentration to be tested were prepared by diluting 2 mL aliquots of the stock solution with 15 mL of the mixture and lower concentrations were prepared by serial dilution of the stock solution. A 2.5 mL aliquot of each solution of known concentration was sprayed evenly onto the soil surface (113 sq. cm) of each seeded pot using a Cornwall 5.0 mL glass syringe fitted with a TeeJet TN-3 hollow cone nozzle to obtain thorough coverage of the soil in each pot. Control pots were sprayed in the same manner with the aqueous mixture.
(§13) The treated pots and control pots were placed in a greenhouse maintained with an approximate 15 hr photoperiod and temperatures of about 23-29° C. during the day and 22-28° C. during the night. Nutrients and water were added on a regular basis and supplemental lighting was provided with overhead metal halide 1000-Watt lamps as necessary. The water was added by top-irrigation. After 3 weeks the condition of the test plants that germinated and grew as compared with that of the untreated plants that germinated and grew was determined visually and scored on a scale of 0 to 100 percent where 0 corresponds to no injury and 100 corresponds to complete kill or no germination.

[8] = system: velvetleaf (Abutilon theophrasti); assay: Preemergence herbicidal activity; type: in vivo; conditions: Abutilon theophrasti, 504 h, Table 6 (headed Post-emergent; text: preemergence), after 3 weeks, read-out: % Control ABUTH; for pest or weed control at 280 ppm: rate 280 ppm; for pest or weed control at 560 ppm: rate 560 ppm
Source text: as §11, §12, §13

[9] = system: pigweed (Amaranthus retroflexus); assay: Preemergence herbicidal activity; type: in vivo; conditions: Amaranthus retroflexus, 504 h, Table 6 (headed Post-emergent; text: preemergence), after 3 weeks, read-out: % Control AMARE; for pest or weed control at 280 ppm: rate 280 ppm; for pest or weed control at 560 ppm: rate 560 ppm
Source text: as §11, §12, §13

Question: For `CCCCCCOC(=O)c1nc(Cl)cc(N)c1Cl` [Compound 9, n-hexyl 4-amino-3,6-dichloropyridine-2-carboxylate], which pest or weed control at 250 ppm [1] is on record?
Answer: 100%

Question: And the pest or weed control at 250 ppm [2]?
Answer: 100%

Question: And the pest or weed control at 250 ppm [3]?
Answer: 100%

Question: And the “GR20 TRFRE” value [4]?
Answer: 20.7 g/ha

Question: What about the “GR80 CIRAR” value [5] of the same compound?
Answer: 20.7 g/ha

Question: And the “GR80 CONAR” value [6]?
Answer: 66 g/ha

Question: And the pest or weed control at 280 ppm [7]?
Answer: 100%

Question: What about the pest or weed control at 280 ppm [8] of the same compound?
Answer: 100%

Question: What about the pest or weed control at 280 ppm [9] of the same compound?
Answer: 98%

Question: And the melting point?
Answer: 65 to 66 °C

Question: With `COc1ccc(Oc2cc(N)c(Cl)c(C(=O)O)n2)cc1` [Compound 49, 4-amino-3-chloro-6-(4-methoxyphenoxy)-pyridine-2-carboxylic acid] as the compound, how does the pest or weed control at 250 ppm [1] read?
Answer: 70%

Question: And the pest or weed control at 250 ppm [2]?
Answer: 60%

Question: What about the pest or weed control at 250 ppm [3] of the same compound?
Answer: 0%

Question: And the pest or weed control at 70 ppm ([7]; rate 70 ppm)?
Answer: 0%

Question: What about the pest or weed control at 70 ppm ([8]; rate 70 ppm) of the same compound?
Answer: 0%

Question: And the pest or weed control at 70 ppm ([9]; rate 70 ppm)?
Answer: 0%

Question: And the melting point?
Answer: 174 °C

Question: What does the source list for `CCCCC(CC)COC(=O)c1nc(Cl)cc(N)c1Cl` (stereo not shown) [Compound 2, 2-Ethylhexyl 4-amino-3,6-dichloropyridine-2-carboxylate]?
Answer: pest or weed control at 250 ppm [1]: 100%; pest or weed control at 250 ppm [2]: 95%; pest or weed control at 250 ppm [3]: 80%; pest or weed control at 280 ppm [7]: 100%; pest or weed control at 280 ppm [8]: 100%; pest or weed control at 280 ppm [9]: 100%; melting point: 55 °C

Question: Which results are given for `CC(C)COc1nc(C(=O)O)c(Cl)c(N)c1Cl` [Compound 56, 4-Amino-3,5-dichloro-6-(2-methylpropoxy)pyridine-2-carboxylic acid]?
Answer: pest or weed control at 250 ppm [1]: 20%; pest or weed control at 250 ppm [2]: 85%; pest or weed control at 250 ppm [3]: 30%; pest or weed control at 560 ppm [7]: 0%; pest or weed control at 560 ppm [8]: 40%; pest or weed control at 560 ppm [9]: 0%; melting point: 104 to 106 °C

Question: For `O=C(O)c1nc(Cl)cc([N+](=O)[O-])c1Cl` [Compound 39, 4-Nitro-3,6-dichloropyridine-2-carboxylic acid], which pest or weed control at 125 ppm [1] is on record?
Answer: 90%

Question: And the pest or weed control at 125 ppm [2]?
Answer: 85%

Question: And the pest or weed control at 125 ppm [3]?
Answer: 30%

Question: And the pest or weed control at 560 ppm [7]?
Answer: 100%

Question: And the pest or weed control at 560 ppm [8]?
Answer: 100%

Question: And the pest or weed control at 560 ppm [9]?
Answer: 100%

Question: And the melting point?
Answer: 192 to 193 °C

Question: With `Nc1cc(Oc2ccccc2)nc(C(=O)O)c1Cl` [Compound 48, 4-amino-3-chloro-6-phenoxypyridine-2-carboxylic acid] as the compound, how does the pest or weed control at 250 ppm [1] read?
Answer: 100%

Question: What about the pest or weed control at 250 ppm [2] of the same compound?
Answer: 100%

Question: What about the pest or weed control at 250 ppm [3] of the same compound?
Answer: 60%

Question: What about the pest or weed control at 280 ppm [7] of the same compound?
Answer: 100%

Question: And the pest or weed control at 280 ppm [8]?
Answer: 100%

Question: And the pest or weed control at 280 ppm [9]?
Answer: 30%

Question: What about the melting point of the same compound?
Answer: 178 °C

Question: Which results are given for `Nc1c(Cl)c(Oc2ccccc2)nc(C(=O)O)c1Cl` [Compound 54, 4-Amino-3,5-dichloro-6-phenoxypyridine-2-carboxylic acid]?
Answer: pest or weed control at 250 ppm [1]: 40%; pest or weed control at 250 ppm [2]: 100%; pest or weed control at 250 ppm [3]: 0%; pest or weed control at 280 ppm [7]: 41%; pest or weed control at 280 ppm [8]: 50%; pest or weed control at 280 ppm [9]: 10%; melting point: 158 to 160 °C

Question: With `Cc1cccc(Oc2cc(N)c(Cl)c(C(=O)O)n2)c1` [Compound 52, 4-amino-3-chloro-6-(3-methylphenoxy)-pyridine-2-carboxylic acid] as the compound, how does the pest or weed control at 250 ppm [1] read?
Answer: 90%

Question: And the pest or weed control at 250 ppm [2]?
Answer: 70%

Question: What about the pest or weed control at 250 ppm [3] of the same compound?
Answer: 20%

Question: And the pest or weed control at 560 ppm [7]?
Answer: 70%

Question: And the pest or weed control at 560 ppm [8]?
Answer: 50%

Question: And the pest or weed control at 560 ppm [9]?
Answer: 20%

Question: What about the melting point of the same compound?
Answer: 169 °C

Question: What does the source list for `Nc1cc(Cl)nc(C(=O)O)c1Br` [Compound 44, 4-Amino-3-bromo-6-chloropyridine-2-carboxylic acid]?
Answer: pest or weed control at 125 ppm [1]: 95%; pest or weed control at 125 ppm [2]: 90%; pest or weed control at 125 ppm [3]: 90%; pest or weed control at 560 ppm [7]: 100%; pest or weed control at 560 ppm [8]: 100%; pest or weed control at 560 ppm [9]: 100%; melting point: 175 °C (dec.)

Question: Which pest or weed control at 250 ppm [1] does the source give for `CCCCCOC(=O)c1nc(Cl)cc(N)c1Cl` [Compound 8, n-pentyl 4-amino-3,6-dichloropyridine-2-carboxylate] here?
Answer: 100%

Question: And the pest or weed control at 250 ppm [2]?
Answer: 100%

Question: What about the pest or weed control at 250 ppm [3] of the same compound?
Answer: 90%

Question: And the pest or weed control at 280 ppm [7]?
Answer: 100%

Question: And the pest or weed control at 280 ppm [8]?
Answer: 100%

Question: And the pest or weed control at 280 ppm [9]?
Answer: 100%

Question: What about the melting point of the same compound?
Answer: 71 to 73 °C
